Results published in the supplement of paper PMC10307832.

Key:
Assay in all cases: relative viability (nuclei count vs DMSO), 5 days (fraction); higher = more cells survive
Ruxolitinib = compound: N#CC[C@H](C1CCCC1)n1cc(-c2ncnc3[nH]ccc23)cn1 [Ruxolitinib]
Method in brief: (§1)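 For viability, nuclei in each treated well were divided by nuclei in vehicle wells and the median across plates was taken. Lung cancer cell lines in 1536-well plates were pinned with five library-drug doses (not always all listed) spaced by √10, cultured 5 days without medium change, and imaged at 4× after Hoechst staining, with plates passing only at control CV below 25% and at least one doubling.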

VE-821 = compound: CS(=O)(=O)c1ccc(-c2cnc(N)c(C(=O)Nc3ccccc3)n2)cc1 [VE-821]
Method in brief: as §1

Vismodegib = compound: CS(=O)(=O)c1ccc(C(=O)Nc2ccc(Cl)c(-c3ccccn3)c2)c(Cl)c1 [Vismodegib]
Method in brief: as §1

Cell Line	relative viability (Ruxolitinib; 0.08 µM)	relative viability (Ruxolitinib; 0.253 µM)	relative viability (Ruxolitinib; 0.8 µM)	relative viability (Ruxolitinib; 2.53 µM)	relative viability (Ruxolitinib; 8 µM)	relative viability (VE-821; 0.08 µM)	relative viability (VE-821; 0.253 µM)	relative viability (VE-821; 0.8 µM)	relative viability (VE-821; 2.53 µM)	relative viability (VE-821; 8 µM)	relative viability (Vismodegib; 0.08 µM)	relative viability (Vismodegib; 0.253 µM)	relative viability (Vismodegib; 0.8 µM)	relative viability (Vismodegib; 2.53 µM)	relative viability (Vismodegib; 8 µM)
HCC-78	0.831	0.717	0.869	0.853	0.743	1.1	0.863	0.887	1.04	0.756	0.82	0.914	0.875	0.902	0.865
LXF-289	0.965	0.996	0.938	0.944	0.919	1.06	1.1	1.09	1.06	1.14	1.02	0.989	1.03	0.988	0.902
NCI-H460	1.03	1.06	1.07	1	0.96	1.05	0.983	0.947	0.82	0.56	1.01	0.979	1	0.981	1.03
NCI-H2023	1.03	0.835	1.18	0.9	0.988	1.1	0.874	0.672	0.494	0.172	0.925	0.892	0.95	1.06	0.98
SK-LU-1	1.01	1.08	1.12	0.966	0.907	1.08	1.06	0.942	0.841	0.569	1	0.997	1.07	0.943	1.04
NCI-H1734	0.962	0.914	1.15	0.879	0.942	1.07	0.989	0.964	1.03	0.656	0.966	0.954	0.951	0.993	0.961
PC-3 [JPC-3]	0.818	0.941	1.02	1.03	0.908	1.03	1.07	1.07	1.06	0.971	0.977	0.999	0.986	1.02	0.986
HCC-827	–	1.01	0.891	0.859	0.901	1.06	1.02	1.1	1.06	1.04	1.04	1.01	1.04	1.03	1.03
NCI-H2405	0.715	0.974	0.999	0.938	0.52	1.06	0.968	0.968	1.09	0.993	0.96	1.06	0.927	0.991	1.03
NCI-H522	1.01	0.95	1.01	0.895	0.874	0.974	0.938	0.934	1.06	0.849	0.973	0.876	0.957	1	1.01
HOP-62	0.976	1.04	1.09	1.05	0.972	1.11	0.997	1.02	1.18	1.02	0.998	0.954	0.94	0.96	1
LCLC-97TM1	0.895	0.852	0.826	0.892	0.949	1	0.964	0.969	1.13	0.703	1	0.984	0.904	0.802	0.979
NCI-H3122	0.986	1.03	1.01	0.868	0.915	1.02	1.01	0.982	1.01	0.933	0.962	1.01	0.904	0.973	0.92
PC-14	–	1.07	1.01	0.865	0.8	1.06	0.932	0.995	0.969	0.686	0.958	0.959	0.988	0.915	0.952
NCI-H2170	1.05	0.975	1	0.924	0.841	0.972	0.932	1.01	0.966	0.642	1.03	0.959	1.01	0.955	0.993
NCI-H1650	–	0.958	1.29	0.812	0.787	0.934	0.841	0.911	0.802	0.465	0.934	0.813	0.877	0.864	0.941
HCC-366	1.07	0.984	1.05	1.03	0.932	1.06	1.01	0.85	0.925	0.191	0.997	1.04	0.998	0.984	1

Cell Line	relative viability (Ruxolitinib; 0.08 µM)	relative viability (Ruxolitinib; 0.253 µM)	relative viability (Ruxolitinib; 0.8 µM)	relative viability (Ruxolitinib; 2.53 µM)	relative viability (Ruxolitinib; 8 µM)	relative viability (VE-821; 0.08 µM)	relative viability (VE-821; 0.253 µM)	relative viability (VE-821; 0.8 µM)	relative viability (VE-821; 2.53 µM)	relative viability (VE-821; 8 µM)	relative viability (Vismodegib; 0.08 µM)	relative viability (Vismodegib; 0.253 µM)	relative viability (Vismodegib; 0.8 µM)	relative viability (Vismodegib; 2.53 µM)	relative viability (Vismodegib; 8 µM)
HARA	0.936	1.01	1.03	0.935	0.88	1.09	0.747	0.954	1.12	0.812	1	0.883	0.883	0.971	0.954
SW 900	0.991	1.02	1.03	1.02	0.896	1.01	0.793	0.763	0.748	0.537	0.982	0.879	0.737	0.655	0.93
COR-L 105	0.76	0.863	0.914	0.824	0.695	0.782	0.811	0.776	0.794	0.574	0.968	0.817	0.959	0.961	0.96
NCI-H1395	0.816	0.767	1.02	0.913	0.771	0.963	0.89	0.792	0.888	0.665	0.834	0.878	0.853	0.829	1
EMC-BAC-2	0.974	0.946	1.06	0.978	0.678	1.18	0.896	1.02	0.965	0.858	0.99	0.953	0.903	1.01	0.934
NCI-H1666	1	0.987	1.07	0.884	1.1	1.02	0.952	1.01	1.1	0.853	0.931	0.928	1	0.955	1.07
H3255	0.73	0.938	1.09	0.969	0.811	0.987	0.961	0.92	1.06	0.944	0.921	0.921	0.951	0.936	0.962
NCI-H1793	0.972	0.928	1.12	0.946	0.699	0.996	0.744	0.747	1.16	0.713	–	0.857	0.96	0.904	0.784
NCI-H1755	0.974	0.989	1.03	0.916	0.825	1.04	0.966	0.905	0.957	0.873	0.983	0.982	1.01	1	0.982
LOU-NH91	0.847	0.957	1.03	0.933	0.99	1.03	0.946	0.927	1.03	0.865	0.918	0.963	0.946	0.908	0.958
NCI-H1975	0.893	0.92	0.973	0.83	0.649	1.01	0.845	0.811	0.795	0.739	0.901	0.925	1.03	1.02	1.01
NCI-H727	0.934	1.02	1.11	0.904	1.36	0.894	0.884	0.958	0.911	0.446	0.891	0.931	0.804	0.988	0.81
CAL-12T	0.918	0.997	1.11	0.792	0.696	1.02	0.947	1.04	0.927	0.844	1.01	0.955	0.976	0.945	0.959
NCI-H441	0.946	0.933	1.16	0.962	0.699	1.16	1.1	1.34	1.34	0.793	1.02	0.909	1.01	0.98	1.04
NCI-H1944	1.02	0.927	0.968	0.875	0.863	1.18	0.933	0.873	1.08	0.425	1.05	1.02	0.966	0.904	1.04
RERF-LC-KJ	0.969	0.933	1.06	1.01	0.965	0.986	0.916	0.878	0.923	0.786	1.03	0.967	1.03	0.973	1.04
NCI-H838	0.918	0.897	0.832	0.567	0.478	1.06	0.887	0.902	1.01	0.791	0.906	0.893	0.941	0.947	0.973
